Test system: Elongator complex protein 1 (ELP1, also referred to as IKBKAP)
Assay: IKBKAP-HTRF assay (IKBKAP protein in lysates of FD patient-derived fibroblasts)
Type: cell-based, human
Conditions: 48 hours incubation, 7-point concentration curve
Protocol: The assay is used for the quantitative determination of Elongator complex protein 1 (ELP1, also referred to as IKBKAP) concentration in cell lysates using the HTRF® (Homogeneous Time-Resolved Fluorescence) technology. IKBKAP is detected in a sandwich HTRF assay by use of an anti-IKAP antibody labeled with a donor and an anti-IKAP antibody labeled with an acceptor.
Cells were thawed and incubated in DMEM-10% FBS for 72 hours. Cells were trypsinized, counted, and re-suspended to a concentration of 50,000 cells/mL in DMEM-10% FBS. A 199 μL aliquot of the cell suspensions were plated at 10,000 cells per well in a 96 well microtiter plate and incubated for 3 to 5 hours. […] Test compounds were serially diluted 3.16-fold in 100% DMSO to generate a 7-point concentration curve. A 1 μL aliquot of 200× compound solution was transferred to cell-containing wells, and cells were incubated for 48 hours in a cell culture incubator (37° C., 5% CO2, 100% relative humidity). Triplicate samples were set up for each compound concentration. After 48 hours, the supernatant was removed from the cells and 50 μL of the 1×LB4 lysis buffer, containing protease inhibitors, was added to the cells and incubated with shaking at room temperature for 1 hour. A 36 μL aliquot of this lysate was subsequently transferred to the 384-well plate containing 4 μL of the antibody solution (1:50 dilution of anti IKAP d2 and anti-IKAP K(9+8) in detection buffer). The 384-well plate was then centrifuged for 1 minute to bring the solutions to the bottom of the plate and incubated overnight at 4° C. Fluorescence for each well of the plate at 665 nm and 620 nm was measured was on the EnVision plate reader (Perkin Elmer). The ΔF for each sample is calculated by:
[formula] wherein Signal is the normalized fluorescence for each sample well and Blank is the average normalized average fluorescence for the Blank control wells.
The maximum fold increase (MFI) in IKBKAP protein abundance for compounds of Formula (I) or a form thereof relative to the vehicle control are provided in Table 1. MFI was calculated by dividing the ΔF value for each sample well by the sample ΔF for the vehicle control wells.
The EC2x for IKBKAP protein expression obtained from the 7-point concentration curve generated for each test compound according to the protocol in Biological Example 1 are also provided in Table 1. The term “EC2x for IKBKAP protein expression” is defined as the concentration of test compound that is effective in producing two times the amount of IKBKAP protein in a FD patient cell compared to the amount produced from the DMSO vehicle control.

Molecule | EC2x for IKBKAP protein expression (concentration producing two times the amount of IKBKAP protein vs DMSO vehicle control) | MFI (maximum fold increase in IKBKAP protein abundance relative to the vehicle control)
2-[(2R)-2-amino-3-fluoropropyl]-5-chloro-3-cyclopropyl-N-[(thiophen-2-yl)methyl]thieno[3,2-b]pyridin-7-amine [Compound 77] | *** (between >0.02 μM and ≤0.5 μM is indicated by three stars (***)) | **** (between >3.9 and ≤4.9 is indicated by four stars (****))
2-[(2R)-2-amino-3-fluoropropyl]-5-chloro-3-methyl-N-[(1,3-thiazol-2-yl)methyl]thieno[3,2-b]pyridin-7-amine [Compound 69] | ***** (≤0.005 μM is indicated by five stars (*****)) | ***** (>4.9 is indicated by five stars (*****))
2-[(2S)-2-amino-4-methylpentyl]-5-chloro-3-cyclopropyl-N-[(1,3-thiazol-2-yl)methyl]thieno[3,2-b]pyridin-7-amine [Compound 80] | *** (between >0.02 μM and ≤0.5 μM is indicated by three stars (***)) | *** (between >2.9 and ≤3.9 is indicated by three stars (***))
2-[(2S)-2-aminobutyl]-5-chloro-3-cyclopropyl-N-[(1,3-thiazol-2-yl)methyl]thieno[3,2-b]pyridin-7-amine [Compound 86] | *** (between >0.02 μM and ≤0.5 μM is indicated by three stars (***)) | **** (between >3.9 and ≤4.9 is indicated by four stars (****))
2-[(2S)-2-aminobutyl]-5-chloro-3-cyclopropyl-N-[(thiophen-2-yl)methyl]thieno[3,2-b]pyridin-7-amine [Compound 75] | *** (between >0.02 μM and ≤0.5 μM is indicated by three stars (***)) | ***** (>4.9 is indicated by five stars (*****))
Clc1cc(NCc2ccco2)c2sccc2n1 [Compound 1, 5-chloro-N-[(furan-2-yl)methyl]thieno[3,2-b]pyridin-7-amine] | * (An EC2x>1 μM is indicated by one star (*)) | *** (between >2.9 and ≤3.9 is indicated by three stars (***))
Cc1csc2c(NCc3ccco3)cc(Cl)nc12 [Compound 2, 5-chloro-N-[(furan-2-yl)methyl]-3-methylthieno[3,2-b]pyridin-7-amine] | *** (between >0.02 μM and ≤0.5 μM is indicated by three stars (***)) | ***** (>4.9 is indicated by five stars (*****))
Cc1c(C(C)O)sc2c(NCc3ccco3)cc(Cl)nc12 (centres unmarked) [Compound 3, 1-(5-chloro-7-{[(furan-2-yl)methyl]amino}-3-methylthieno[3,2-b]pyridin-2-yl)ethan-1-ol] | *** (between >0.02 μM and ≤0.5 μM is indicated by three stars (***)) | *** (between >2.9 and ≤3.9 is indicated by three stars (***))
CC(O)c1cc2nc(Cl)cc(NCc3ccco3)c2s1 (centres unmarked) [Compound 4, 1-(5-chloro-7-{[(furan-2-yl)methyl]amino}thieno[3,2-b]pyridin-2-yl)ethan-1-ol] | * (An EC2x>1 μM is indicated by one star (*)) | ** (between >1.9 and ≤2.9 is indicated by two stars (**))
OCc1cc2nc(Cl)cc(NCc3ccco3)c2s1 [Compound 5, (5-chloro-7-{[(furan-2-yl)methyl]amino}thieno[3,2-b]pyridin-2-yl)methanol] | * (An EC2x>1 μM is indicated by one star (*)) | * (An MFI≤1.9 is indicated by one star (*))
Clc1cc(NCc2ccco2)c2scc(Cl)c2n1 [Compound 6, 3,5-dichloro-N-[(furan-2-yl)methyl]thieno[3,2-b]pyridin-7-amine] | *** (between >0.02 μM and ≤0.5 μM is indicated by three stars (***)) | ***** (>4.9 is indicated by five stars (*****))
Clc1cc(NCc2ccco2)c2scc(Br)c2n1 [Compound 7, 3-bromo-5-chloro-N-[(furan-2-yl)methyl]thieno[3,2-b]pyridin-7-amine] | *** (between >0.02 μM and ≤0.5 μM is indicated by three stars (***)) | ***** (>4.9 is indicated by five stars (*****))
Clc1cc(NCc2nccs2)c2scc(Cl)c2n1 [Compound 8, 3,5-dichloro-N-[(1,3-thiazol-2-yl)methyl]thieno[3,2-b]pyridin-7-amine] | *** (between >0.02 μM and ≤0.5 μM is indicated by three stars (***)) | ***** (>4.9 is indicated by five stars (*****))
Clc1cc(NCc2nccs2)c2scc(Br)c2n1 [Compound 9, 3-bromo-5-chloro-N-[(1,3-thiazol-2-yl)methyl]thieno[3,2-b]pyridin-7-amine] | *** (between >0.02 μM and ≤0.5 μM is indicated by three stars (***)) | ***** (>4.9 is indicated by five stars (*****))
Cc1cc(NCc2nccs2)c2scc(Cl)c2n1 [Compound 10, 3-chloro-5-methyl-N-[(1,3-thiazol-2-yl)methyl]thieno[3,2-b]pyridin-7-amine] | * (An EC2x>1 μM is indicated by one star (*)) | * (An MFI≤1.9 is indicated by one star (*))
N#Cc1cc(NCc2cccs2)c2scc(Br)c2n1 [Compound 11, 3-bromo-7-{[(thiophen-2-yl)methyl]amino}thieno[3,2-b]pyridine-5-carbonitrile] | *** (between >0.02 μM and ≤0.5 μM is indicated by three stars (***)) | ** (between >1.9 and ≤2.9 is indicated by two stars (**))
N#Cc1cc(NCc2cccs2)c2scc(C#N)c2n1 [Compound 12, 7-{[(thiophen-2-yl)methyl]amino}thieno[3,2-b]pyridine-3,5-dicarbonitrile] | *** (between >0.02 μM and ≤0.5 μM is indicated by three stars (***)) | ** (between >1.9 and ≤2.9 is indicated by two stars (**))
N#Cc1csc2c(NCc3cccs3)cc(Cl)nc12 [Compound 13, 5-chloro-7-{[(thiophen-2-yl)methyl]amino}thieno[3,2-b]pyridine-3-carbonitrile] |  | ***** (>4.9 is indicated by five stars (*****))
N#Cc1csc2c(NCc3ccco3)cc(Cl)nc12 [Compound 14, 5-chloro-7-{[(furan-2-yl)methyl]amino}thieno[3,2-b]pyridine-3-carbonitrile] | *** (between >0.02 μM and ≤0.5 μM is indicated by three stars (***)) | ***** (>4.9 is indicated by five stars (*****))
N#Cc1cc(NCc2ccco2)c2scc(C#N)c2n1 [Compound 15, 7-{[(furan-2-yl)methyl]amino}thieno[3,2-b]pyridine-3,5-dicarbonitrile] | * (An EC2x>1 μM is indicated by one star (*)) | * (An MFI≤1.9 is indicated by one star (*))
C[C@H](N)Cc1cc2nc(Cl)cc(NCc3ccco3)c2s1 [Compound 16, 2-[(2S)-2-aminopropyl]-5-chloro-N-[(furan-2-yl)methyl]thieno[3,2-b]pyridin-7-amine] | ***** (≤0.005 μM is indicated by five stars (*****)) | **** (between >3.9 and ≤4.9 is indicated by four stars (****))

— US12384797B2, “Thioeno[3,2-b] pyridin-7-amine compounds for treating familial dysautonomia” (PTC THERAPEUTICS, INC., priority 2019, dated 2025)
